Experiment [1] deals with T1, KRAS (G12C)::SOS1 (Homo sapiens, UniProt P01116, C118S/C51S/C80L/G12C).
T1 construct: KRAS (G12C) 1-169, N-terminal 6His-tag for purification, cleaved off; 6His-tag (N, cleaved yes); made in house
Kind of experiment: KRAS::SOS1 AlphaScreen binding assay, KRAS G12C. To be noted: read-out: KRASG12C IC50. An excerpt: This assay can be used to examine the potency with which compounds according to the invention binding to (mutated) KRAS inhibit the protein-protein interaction between SOS1 and (mutated) KRAS e.g., KRAS WT, KRAS G12C, KRAS G12D, KRAS G12V, KRAS G13D. […] Low IC50 values in this assay setting are indicative of strong inhibition of protein-protein interaction between SOS1 and KRAS:
These assays measure the inhibitory effect of compounds on KRAS mutant protein-protein interactions using the Alpha Screen technology by Perkin Elmer
The following (mutant) enzyme forms of KRAS and interacting proteins are used in these assays at the given concentrations: • KRAS (G12D) 1-169, N-terminal 6His-tag, C-terminal avi-tag (Xtal BioStructures, Inc.); final assay concentration 10 nM and SOS1 564-1049, N-terminal 229 GST-tag, TEV cleavage site (Viva Biotech Ltd); final assay concentration 5 nM; • KRAS (G12C) 1-169, N-terminal 6His-tag for purification, cleaved off, C-terminal avi-tag, biotinylated, mutations: C51S, C80L, C118S (in house); final assay concentration 7.5 nM and SOS1 564-1049, N-terminal 229 GST-tag, TEV cleavage site (Viva Biotech Ltd); final assay concentration 5 nM; • KRAS (G12V) 1-169, N-terminal 6His-tag for purification, cleaved off, C-terminal avi-tag, biotinylated, TEV cleavage site, mutation: C118S, GDP loaded (in house); final assay concentration 10 nM and SOS1 564-1049, N-terminal 229 GST-tag, TEV cleavage site (Viva Biotech Ltd); final assay concentration 10 nM; • KRAS (G13D) 1-169, N-terminal 6His-tag for purification, cleaved off, C-terminal avi-tag, biotinylated, TEV cleavage site, mutation: C118S, GDP loaded (in house); final assay concentration 10 nM and SOS1 564-1049, N-terminal 229 GST-tag, TEV cleavage site (Viva Biotech Ltd); final assay concentration 10 nM; • KRAS (WT) 1-169, N-terminal 6His-tag for purification, cleaved off, C-terminal avi-tag, biotinylated, TEV cleavage site, mutation: C118S, GDP loaded (in house); final assay concentration 10 nM and SOS1 564-1049, N-terminal 229 GST-tag, TEV cleavage site (Viva Biotech Ltd); final assay concentration 10 nM.
Test compounds dissolved in DMSO are dispensed onto assay plates (Proxiplate 384 PLUS, white, PerkinElmer; 6008289) using an Access Labcyte Workstation with the Labcyte Echo 55×. For the chosen highest assay concentration of 100 μM, 150 nL of compound solution are transferred from a 10 mM DMSO compound stock solution. A series of eleven fivefold dilutions per compound are transferred to the assay plate, compound dilutions are tested in duplicates. DMSO are added as backfill to a total volume of 150 nL.
The assays run on a fully automated robotic system in a darkened room below 100 Lux. To 150 nl of compound dilution 10 μl of a mix including KRAS mutant protein, SOS1 (final assay concentrations see above) and GDP nucleotide (Sigma G7127; final assay concentration 10 μM) in assay buffer (1×PBS, 0.1% BSA, 0.05% Tween 20) are added into columns 1-24.
After 30 minutes incubation time 5 μl of Alpha Screen bead mix in assay buffer are added into columns 1-23. Bead mix consists of AlphaLISA Glutathione Acceptor Beads (PerkinElmer, Cat No AL109) and AlphaScreen Streptavidin Donor Beads (PerkinElmer Cat No 6760002) in assay buffer at a final assay concentration of 10 μg/ml each.
Plates are kept at room temperature in a darkened incubator. After an additional 60 minutes incubation time the signal is measured in a PerkinElmer Envision HTS Multilabel Reader using the AlphaScreen specs from PerkinElmer.
Each plate contains up to 16 wells of a negative control depending on the dilution procedure (platewise or serial) (DMSO instead of test compound; with KRAS mutant::SOS1 GDP mix and bead mix; column 23) and 16wells of a positive control (DMSO instead of test compound; with KRAS mutant::SOS1 GDP mix w/o bead mix; column 24).
As internal control known inhibitors of KRAS mutant::SOS1 interaction can be measured on each compound plate. […]

Experiment [2] has as its target KRAS G12C Ba/F3 (Homo sapiens, UniProt P01116, G12C, cells depend on it). Kind of experiment: Ba/F3 proliferation assay, KRAS G12C. It counts as cell-based. To be noted: 72 h, AlamarBlue, read-out: KRAS G12C Ba/F3 IC50. As for the experimental part:
Plasmids containing KRASG12 mutants(i.e. G12D, G12C, G12V) are obtained from GeneScript. To generate KRASG12-dependent Ba/F3 models, Ba/F3 cells are transduced with retroviruses containing vectors that harbor KRASG12 isoforms. Platinum-E cells (Cell Biolabs) are used for retrovirus packaging. Retrovirus is added to Ba/F3 cells. To ensure infection, 4 μg/mL polybrene is added and cells are spinfected. […] Cells with an infection efficiency of 10% to 20% are further cultivated and puromycin selection with 1 μg/mL is initiated. As a control, parental Ba/F3 cells are used to show selection status. Selection is considered successful when parental Ba/F3 cells cultures died. To evaluate the transforming potential of KRASG12 mutations, the growth medium is no longer supplemented with IL-3. Ba/F3 cells harboring the empty vector are used as a control. Approximately ten days before conducting the experiments, puromycin is left out.
Compounds are added using an Access Labcyte Workstation with a Labcyte Echo 550 or 555 accoustic dispenser. All treatments are performed in technical duplicates. […] AlamarBlue™ (ThermoFisher), a viability stain, is added and fluorescence measured in the PerkinElmer Envision HTS Multilabel Reader. The raw data are imported into and analyzed with the Boehringer Ingelheim proprietary software MegaLab (curve fitting based on the program PRISM, GraphPad Inc.).
(The colour change of resazurin is a common sign of viable cells or microbes.)

Experiment [3] has as its system SAS cells. Kind of experiment: SAS CTG proliferation assay (120 h) (HNSCC, wt amplified). The class given is cell-based. As for the experimental part:
SAS cells (JCRB0260) are dispensed into 384-well plates, flat and clear bottom (Greiner, PNr. 781091) at a density of 300 cells per well in 60 μL DMEM:F12 (Gibco 31330-038)+10% Fetal Calf Serum (HyClone, PNr.: SH30084.03) and incubated at 37° C. in a CO2 incubator overnight The next day, compounds (10 mM stock in DMSO) are added with the ECHO acoustic liquid handler system (Beckman Coulter), including DMSO controls. Plates are incubated for 120 h, and cell viability is measured using CellTiter-Glo luminescent cell viability reagent (Promega product code G7570). Viability (stated as percent of control) is defined as relative luminescence units RLU of each well divided by the RLU of cells in DMSO controls.

This is an account of results in US20250129095A1, “ANNULATED 2-AMINO-3-CYANO THIOPHENES AND DERIVATIVES FOR THE TREATMENT OF CANCER” (Boehringer Ingelheim Int'l GmbH Corp., priority 2021, published 2025).

Usually IC50 stands for the concentration that inhibits the measured activity by half.

Chain of KRAS G12C Ba/F3 (P01116 whole entry G12C, canonical isoform): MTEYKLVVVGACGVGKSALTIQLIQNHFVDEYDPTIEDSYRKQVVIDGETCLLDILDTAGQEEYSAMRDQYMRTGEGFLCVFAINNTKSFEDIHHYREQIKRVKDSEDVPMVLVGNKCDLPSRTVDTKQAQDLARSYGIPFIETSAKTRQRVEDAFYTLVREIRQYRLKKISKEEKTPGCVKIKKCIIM
T1 sequence (P01116 1-169 isoform P01116-2 G12C/C51S/C80L/C118S): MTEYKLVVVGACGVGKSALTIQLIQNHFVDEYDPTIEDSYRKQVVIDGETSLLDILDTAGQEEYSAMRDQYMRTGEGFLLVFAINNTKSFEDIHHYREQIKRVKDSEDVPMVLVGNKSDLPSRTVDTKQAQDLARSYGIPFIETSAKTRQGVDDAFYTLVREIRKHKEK

On to `C[C@H](Oc1cc(O[C@H]2CNC(C)(C)C2)nc(-c2noc3c2CCC[C@@]32CCCc3sc(N)c(C#N)c32)n1)[C@@H]1CCCN1C` (single isomer, unassigned) [II-8], for which the IC50 in experiment [1] worked out at 2 nM; in experiment [3] it was 2600 nM. In experiment [2], the GI50 came to 592 nM.

On to `C[C@H](Oc1cc(Oc2nccs2)nc(-c2onc3c2CCC[C@@]32CCCc3sc(N)c(C#N)c32)n1)[C@@H]1CCCN1C` [Example I-1], for which the values for the IC50 in experiment [1] and in experiment [3] were 1 nM and 19 nM, respectively. Further, the GI50 in experiment [2] was 4 nM.

`C[C@H](Oc1cc(Oc2cccnc2)nc(-c2onc3c2CCC[C@@]32CCCc3sc(N)c(C#N)c32)n1)[C@@H]1CCCN1C` [Example I-2]: the IC50 turned out to be 1 nM in experiment [1] and 15 nM in experiment [3]. The GI50 in experiment [2] came to 4 nM.

Consider `C[C@H](Oc1cc(Oc2cncnc2)nc(-c2onc3c2CCC[C@@]32CCCc3sc(N)c(C#N)c32)n1)[C@@H]1CCCN1C` [Example I-3], for which the half-inhibitory concentration (IC50) in experiment [1] is 1 nM; in experiment [3] it was 14 nM. Moreover, the GI50 in experiment [2] worked out at 4 nM.

As for `C[C@H](Oc1cc(N[C@H]2CCOC2)nc(-c2onc3c2CCC[C@@]32CCCc3sc(N)c(C#N)c32)n1)[C@@H]1CCCN1C` [Example I-4], the figures for the IC50 in experiment [1] and in experiment [3] were 3 nM and 719 nM, respectively. Further, in experiment [2], the GI50 came to 83 nM.

Consider `COC[C@H](C)Nc1cc(O[C@@H](C)[C@@H]2CCCN2C)nc(-c2onc3c2CCC[C@@]32CCCc3sc(N)c(C#N)c32)n1` [Example I-5], for which, in experiment [1], the IC50 came to 5 nM. Moreover, the GI50 in experiment [2] was 71 nM.

As to `C[C@H](Oc1cc(Nc2ccccn2)nc(-c2onc3c2CCC[C@@]32CCCc3sc(N)c(C#N)c32)n1)[C@@H]1CCCN1C` [Example I-6], the IC50 in experiment [1] stood at 3 nM; in experiment [3] it was 81 nM. In addition, the GI50 in experiment [2] stood at 58 nM.

On to `C[C@H](Oc1cc(Sc2ncccn2)nc(-c2onc3c2CCC[C@@]32CCCc3sc(N)c(C#N)c32)n1)[C@@H]1CCCN1C` [Example I-7], for which the values for the half-inhibitory concentration (IC50) in experiment [1] and in experiment [3] were 5 nM and 221 nM, respectively. In addition, the GI50 in experiment [2] worked out at 75 nM.

With `C[C@H](Oc1cc(OCC2(N(C)C)COC2)nc(-c2onc3c2CCC[C@@]32CCCc3sc(N)c(C#N)c32)n1)[C@@H]1CCCN1C` [Example I-8], the values for the IC50 in experiment [1] and in experiment [3] were 2 nM and 51 nM, respectively. Further, the GI50 in experiment [2] was found to be 51 nM.

As to `C[C@H](Oc1cc(Oc2cncnc2)nc(-c2noc3c2CCC[C@@]32CCCc3sc(N)c(C#N)c32)n1)[C@@H]1CCCN1C` [II-1], the results for the IC50 in experiment [1] and in experiment [3] were 1 nM and 20 nM, respectively. The GI50 in experiment [2] worked out at 4 nM.

With `C[C@H](Oc1cc(Oc2nccs2)nc(-c2noc3c2CCC[C@@]32CCCc3sc(N)c(C#N)c32)n1)[C@@H]1CCCN1C` [II-2], the figures for the IC50 in experiment [1] and in experiment [3] were 2 nM and 44 nM, respectively. The GI50 in experiment [2] came out at 5 nM.

`C[C@H](Oc1cc(Oc2ccon2)nc(-c2noc3c2CCC[C@@]32CCCc3sc(N)c(C#N)c32)n1)[C@@H]1CCCN1C` [II-3]: the IC50 stood at 2 nM in experiment [1] and 67 nM in experiment [3]. The GI50 in experiment [2] is 17 nM.

On to `C[C@H](Oc1cc(O[C@H]2CCOC2)nc(-c2noc3c2CCC[C@@]32CCCc3sc(N)c(C#N)c32)n1)[C@@H]1CCCN1C` [II-4], for which the IC50 came to 2 nM in experiment [1] and 44 nM in experiment [3]. Also, in experiment [2], the GI50 was 12 nM.

Consider `COCCOc1cc(O[C@@H](C)[C@@H]2CCCN2C)nc(-c2noc3c2CCC[C@@]32CCCc3sc(N)c(C#N)c32)n1` [II-5], for which the IC50 in experiment [1] was found to be 2 nM; in experiment [3], 67 nM. In addition, the GI50 in experiment [2] is 17 nM.

As to `C[C@H](Oc1cc(OCCO)nc(-c2noc3c2CCC[C@@]32CCCc3sc(N)c(C#N)c32)n1)[C@@H]1CCCN1C` [II-6], the values for the IC50 in experiment [1] and in experiment [3] were 1 nM and 40 nM, respectively. Moreover, the GI50 in experiment [2] was determined as 11 nM.

In the case of `C[C@H](Oc1cc(Oc2cnccn2)nc(-c2noc3c2CCC[C@@]32CCCc3sc(N)c(C#N)c32)n1)[C@@H]1CCCN1C` [II-7], the 50% inhibitory concentration (IC50) was 2 nM in experiment [1] and 1390 nM in experiment [3]. Further, the GI50 in experiment [2] is 4 nM.

In the case of `C[C@H](Oc1cc(O[C@@H]2CNC2(C)C)nc(-c2noc3c2CCC[C@@]32CCCc3sc(N)c(C#N)c32)n1)[C@@H]1CCCN1C` [II-9], the IC50 in experiment [1] stood at 2 nM; in experiment [3] it was 179 nM. Moreover, the GI50 in experiment [2] was 133 nM.

Regarding `C[C@H](Oc1cc(N(C)C)nc(-c2noc3c2CCC[C@@]32CCCc3sc(N)c(C#N)c32)n1)[C@@H]1CCCN1C` [II-10], the IC50 in experiment [1] turned out to be 2 nM; in experiment [3], 795 nM. In addition, in experiment [2], the GI50 came to 61 nM.

Take `C[C@H](Oc1cc(NCC2COC2)nc(-c2noc3c2CCC[C@@]32CCCc3sc(N)c(C#N)c32)n1)[C@@H]1CCCN1C` [II-11]: the values for the IC50 in experiment [1] and in experiment [3] were 2 nM and 21 nM, respectively. Besides, the GI50 in experiment [2] came out at 14 nM.

Regarding `C[C@H](Oc1cc(Nc2nccs2)nc(-c2noc3c2CCC[C@@]32CCCc3sc(N)c(C#N)c32)n1)[C@@H]1CCCN1C` [II-12], the results for the IC50 in experiment [1] and in experiment [3] were 4 nM and 594 nM, respectively. Also, in experiment [2], the GI50 came out at 44 nM.

As for `C[C@H](Oc1cc(Nc2ncco2)nc(-c2noc3c2CCC[C@@]32CCCc3sc(N)c(C#N)c32)n1)[C@@H]1CCCN1C` [II-13], the IC50 came out at 2 nM in experiment [1] and 46 nM in experiment [3]. For the same compound, the GI50 in experiment [2] was determined as 17 nM.

`C[C@H](Oc1cc(Nc2ccccn2)nc(-c2noc3c2CCC[C@@]32CCCc3sc(N)c(C#N)c32)n1)[C@@H]1CCCN1C` [II-16]: the half-maximal inhibitory concentration (IC50) in experiment [1] was found to be 2 nM. Further, in experiment [2], the GI50 turned out to be 24 nM.
